Source: ChEMBL document CHEMBL3244002, “Activity-electroreduction relationship of antimicrobial metronidazole analogues” (J Med Chem, 1978)
Converted amounts (≈) assume the structure as drawn.

Key:
Clostridium pasteurianum = assay: Antimicrobial activity against Clostridium pasteurianum ATCC 6013 assessed as growth inhibition after 24 hrs under anaerobic conditions by microscopic analysis; type: functional; details: ATCC 6013, 24 h
Trichomonas vaginalis = assay: Antimicrobial activity against Trichomonas vaginalis ATCC 30001 assessed as growth inhibition after 48 hrs under anaerobic conditions by microscopic analysis; type: functional; details: ATCC 30001, 48 h
[1] = 1-Octanol-saturated McIlvaine buffer partition coefficient, log P of the compound at 80 uM at pH 6.01 by spectrophotometric analysis; type: physicochemical; details: 1-octanol/McIlvaine buffer
[2] = Decrease in current height for electroreduction of S-Fe bonding in clostridial ferridoxin assessed as alternating current reduction peak potential at 32 uM by polarographic technique; type: physicochemical
[3] = Effect on magnitude of electroreduction potential (Ep) of clostridial ferridoxin by alternating current polarographic technique; type: physicochemical

`Cc1ncc([N+](=O)[O-])n1CCCl` showed an MIC (Clostridium pasteurianum) of 0.39 µg/mL (≈ 2.06 µM), an MIC (Trichomonas vaginalis) of 0.195 µg/mL (≈ 1.03 µM) and a logD at 80 µM [1] of 0.879.
Work on `CC(=O)OCCn1c([N+](=O)[O-])cnc1C` yielded an MIC (Clostridium pasteurianum) of 0.39 µg/mL (≈ 1.83 µM), an MIC (Trichomonas vaginalis) of 0.098 µg/mL (≈ 0.46 µM) and a logD at 80 µM [1] of 0.301.
`Cc1ncc([N+](=O)[O-])n1CCSC(=S)N(C)C` showed an MIC (Clostridium pasteurianum) of 0.683 µg/mL (≈ 2.49 µM), an Activity [2] of 0.533 V and an MIC (Trichomonas vaginalis) of 0.195 µg/mL (≈ 0.711 µM). For the same compound, the Activity [3] was “Not Active” and the logD at 80 µM [1] was 1.28.
`Cc1ncc([N+](=O)[O-])n1CCN=[N+]=[N-]` gave an MIC (Clostridium pasteurianum) of 0.39 µg/mL (≈ 1.99 µM), an MIC (Trichomonas vaginalis) of 0.341 µg/mL (≈ 1.74 µM) and a logD at 80 µM [1] of 0.755.
With `Cc1ncc([N+](=O)[O-])n1CCOC(=O)N(C)C` the MIC (Clostridium pasteurianum) was 0.39 µg/mL (≈ 1.61 µM), the MIC (Trichomonas vaginalis) was 0.195 µg/mL (≈ 0.805 µM) and the logD at 80 µM [1] was 0.455.
With `Cc1ncc([N+](=O)[O-])n1CCS(=O)(=O)[O-].[Na+]` the MIC (Clostridium pasteurianum) was 1.17 µg/mL, the MIC (Trichomonas vaginalis) was 6.25 µg/mL and the logD at 80 µM [1] was -2.05.
`CC(=O)NCCn1c([N+](=O)[O-])cnc1C` showed an MIC (Clostridium pasteurianum) of 0.78 µg/mL (≈ 3.68 µM), an MIC (Trichomonas vaginalis) of 10.9 µg/mL (≈ 51.6 µM) and a logD at 80 µM [1] of -0.469.
With `Cc1ncc([N+](=O)[O-])n1CCSc1ccc(Cl)cc1` the MIC (Clostridium pasteurianum) was 5.47 µg/mL (≈ 18.4 µM), the MIC (Trichomonas vaginalis) was 12.5 µg/mL (≈ 42 µM) and the logD at 80 µM [1] was 1.47.
`Cc1ncc([N+](=O)[O-])n1CCO` [METRONIDAZOLE] showed an MIC (Clostridium pasteurianum) of 0.244 µg/mL (≈ 1.43 µM), an MIC (Trichomonas vaginalis) of 0.098 µg/mL (≈ 0.573 µM) and a logD at 80 µM [1] of -0.051.
